Structures can show the parent of a compound that is named as a salt. Where two headings read alike, the source gives them in different places. Marks after values point to notes of the source that are not given here.
Key:
[1] = tested on: Middle Cerebral Artery Occlusion (MCA-O) in Male Wistar Rats; conditions: rat, in vivo
[2] = tested on: Closed Head Injury (CHI) in Mice; assay: Morris Water Maze Test after closed head injury (reference memory); conditions: retested daily for 2 weeks
Experimental: Morris Water Maze Test: the water maze consists of a circular aluminium pool, im in diameter and 60 cm in depth, filled with water to a depth of 17.5 cm. The hidden goal platform is a glass vessel (15 cm diameter×16.5 cm height) placed upside down at a fixed location in the pool, 1 cm below the surface of the water. The water temperature is maintained at 24° C. and the pool is always placed in the same position in the room to provide the same extra-maze cues. […] Commencing 24 hr after CHI, mice were retested daily for 2 weeks in 3 trials per day.

[3] = tested on: Closed Head Injury (CHI) in Mice; assay: Closed Head Injury (CHI) in mice: motor function, neurological severity score (NSS); type: in vivo; conditions: difference from NSS at 1 hr
[4] = target: T1, whole brain AChE (Mus musculus, UniProt P21836); conditions: for AChE Inhibition Ex vivo ED50 (AC): mice, whole brain, at peak of activity; for AChE Inhibition Time to peak activity t / AChE Inhibition Time to return to 50% of peak t: mouse, in vivo
T1 sequence (P21836 32-614): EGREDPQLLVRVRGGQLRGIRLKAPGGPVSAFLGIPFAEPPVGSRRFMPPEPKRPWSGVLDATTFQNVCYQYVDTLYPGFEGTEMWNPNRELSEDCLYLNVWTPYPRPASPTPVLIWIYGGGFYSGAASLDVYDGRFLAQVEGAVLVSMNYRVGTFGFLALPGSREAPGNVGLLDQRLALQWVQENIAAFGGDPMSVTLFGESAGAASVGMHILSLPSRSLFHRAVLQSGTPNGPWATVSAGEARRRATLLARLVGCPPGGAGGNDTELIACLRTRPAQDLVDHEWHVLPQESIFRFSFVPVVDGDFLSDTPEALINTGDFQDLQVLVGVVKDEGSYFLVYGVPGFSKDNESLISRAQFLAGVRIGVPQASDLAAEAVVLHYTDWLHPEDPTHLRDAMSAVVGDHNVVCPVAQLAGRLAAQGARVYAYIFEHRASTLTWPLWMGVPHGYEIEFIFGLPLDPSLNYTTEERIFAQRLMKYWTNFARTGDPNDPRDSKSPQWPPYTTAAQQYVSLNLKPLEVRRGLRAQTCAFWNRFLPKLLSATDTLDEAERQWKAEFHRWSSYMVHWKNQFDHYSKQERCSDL

[5] = tested on: Middle Cerebral Artery Occlusion (MCA-O) in Male Wistar Rats
Experimental: Male Wistar rats (Olac England-Jerusalem) 300-400 g each were anesthetized with a solution of Equitesine administered i.p. at a dose of 3 ml/kg. Equitesine consists of 13.5 ml sodium pentothal solution (60 mg/ml), 3.5 g chloral hydrate, 1.75 g MgSO4, 33 ml propylene glycol, 8.3 ml absolute alcohol, made up to 83 ml with distilled water.
The dura matter was opened carefully using a 27 gauge needle The MCA was permanently occluded by microbipolar coagulation at low power setting, beginning 2-3 mm medial to the olfactory tract between its cortical branch to the rhinal cortex and the laterate striate arteries. After coagulation, the MCA was severed with microscissors and divided to ensure complete occlusion. Following this, the temporalis muscle was sutured and laid over the craniectomy site. The skin was closed with a running 3-0 silk suture. A sham craniectomy operation was performed on a parallel group of rats, but without cauterization of the MCA.
At 24 and 48 hours post surgery a neurological score was taken in order to assess the severity of the injury in the drug-treated rats with respect to their untreated controls.
Drugs were administered as an s.c. injection, according to the following schedule:
The scale runs from 0 (fully normal rats) to 13 (fully incapacitated rats). Most parameters are rated as either 0 (normal), or 1 (incapacitated) others are graded. […]

[6] = target: T2, Human erythrocyte acetylcholinesterase (Homo sapiens, UniProt P22303); assay: biochemical; type: biochemical; conditions: AChE Inhibition In vitro IC50
T2 construct: Human erythrocyte acetylcholinesterase (type XIII, Sigma Israel); purchased Sigma Israel type XIII; host or cells: human erythrocytes
How it was run: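 Erythrocyte AChE (type XIII) from 1 U/ml stock containing 1% Triton and 0.05% BSA in phosphate buffer pH 8; 0.05 U enzyme preincubated with 3-5 compound concentrations, triplicate, 15 to 60 minutes at 37° C. Percent inhibition calculated against drug-free enzyme.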

[7] = target: T3, MAO-B (Rattus norvegicus, UniProt P19643); assay: Inhibition of MAO activity in vitro, PEA as substrate; type: biochemical; design: The MAO enzyme source was a homogenate of rat brain in 0.3M sucrose; from tissue; host or cells: rat brain homogenate, 600 g supernatant; conditions: MAO-B Inhibition In vitro IC50, rat brain homogenate
T3 sequence (P19643 1-520): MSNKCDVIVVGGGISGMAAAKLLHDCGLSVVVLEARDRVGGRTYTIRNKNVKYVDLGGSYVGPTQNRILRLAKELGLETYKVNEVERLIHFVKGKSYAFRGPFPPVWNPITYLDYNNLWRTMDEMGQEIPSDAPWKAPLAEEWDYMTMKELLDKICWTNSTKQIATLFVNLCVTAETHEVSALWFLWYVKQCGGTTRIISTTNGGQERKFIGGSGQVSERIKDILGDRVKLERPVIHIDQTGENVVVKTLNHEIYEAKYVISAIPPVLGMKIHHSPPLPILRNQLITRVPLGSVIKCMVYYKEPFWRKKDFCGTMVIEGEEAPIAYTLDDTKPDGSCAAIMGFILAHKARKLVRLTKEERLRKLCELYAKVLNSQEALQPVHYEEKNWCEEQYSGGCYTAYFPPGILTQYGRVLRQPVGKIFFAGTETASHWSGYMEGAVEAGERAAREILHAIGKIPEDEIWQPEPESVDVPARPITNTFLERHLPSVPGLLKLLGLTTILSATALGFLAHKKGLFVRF
Experimental: Substrate concentrations used were 50 μM (PEA) and 1 mM (5-HT).

[8] = 46 mg/kg administered 60 min before CHl
[9] = 46 mg/kg sc once 15 min after CHI
[10] = 15 mg/kg sc once 15 min after CHI
[11] = 6.5 mg/kg sc once 15 min after CHI

T2 sequence (P22303 32-617 isoform P22303-2 limits assumed): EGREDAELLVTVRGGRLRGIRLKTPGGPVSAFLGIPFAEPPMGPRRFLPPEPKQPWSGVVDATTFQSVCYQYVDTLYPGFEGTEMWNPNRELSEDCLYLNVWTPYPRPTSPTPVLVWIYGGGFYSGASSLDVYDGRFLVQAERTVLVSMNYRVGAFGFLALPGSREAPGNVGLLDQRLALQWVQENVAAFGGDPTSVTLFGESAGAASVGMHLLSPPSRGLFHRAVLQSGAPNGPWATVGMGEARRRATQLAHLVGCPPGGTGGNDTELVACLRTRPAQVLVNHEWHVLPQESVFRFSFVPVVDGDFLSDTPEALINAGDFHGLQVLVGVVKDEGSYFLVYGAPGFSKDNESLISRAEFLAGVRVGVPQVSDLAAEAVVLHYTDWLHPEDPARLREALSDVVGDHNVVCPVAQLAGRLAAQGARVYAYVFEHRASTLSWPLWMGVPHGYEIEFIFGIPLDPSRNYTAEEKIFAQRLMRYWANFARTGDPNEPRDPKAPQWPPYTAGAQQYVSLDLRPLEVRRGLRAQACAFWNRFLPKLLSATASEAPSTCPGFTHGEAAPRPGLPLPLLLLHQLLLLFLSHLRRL

SMILES | Volume infarction Mean ± SD [1] | AChE Inhibition Ex vivo ED50 (AC) [4] | AChE Inhibition Time to peak activity t [4] | AChE Inhibition Time to return to 50% of peak t [4] | IC50 [6] | IC50 [7] | also measured
C#CCNC1CCc2ccc(OC(=O)N(C)CC)cc21 (stereo not shown) [Compound 25, 6-(N-Me, N-Etcarbamyloxy) N-propargyl aminoindan, HCl] | 189 ± 54 mm* | 140.0 µmol/kg | 60 min | >180 min | 53 µM |  | reduction in latency to find the platform, Morris Water Maze, compared to saline treated controls ([2]; 46 mg/kg, FIG. 2): Memory is enhanced; ΔNSS, 24 hr post-CHl [3, 8]: 4.90 ± 0.43; ΔNSS, 7 days post-CHl [3, 8]: 7.70 ± 0.33^m; ΔNSS, 14 days post-CHl [3, 8]: 8.80 ± 0.33^m; ΔNSS, 24 hr post-CHl [3, 9]: 5.00 ± 0.42; ΔNSS, 7 days post-CHl [3, 9]: 7.42 ± 0.62^m; ΔNSS, 14 days post-CHl [3, 9]: 9.01 ± 0.69^m; ΔNSS (difference measured at 24 hours and 48 hours) ([5]; s.c. 43 mg/kg 90 minutes prior to MCA-O and 30 mg/kg 3 hours post MCA-O): 1.78
CCN(C)C(=O)Oc1ccc2c(c1)C(NC)CC2 (stereo not shown) [Compound 10] |  | 34.7 µmol/kg | 60 to 90 min | >180 min |  |  | reduction in latency to find the platform, Morris Water Maze, compared to saline treated controls ([2]; 15 mg/kg, FIG. 1): Memory is enhanced; ΔNSS, 24 hr post-CHl [3, 10]: 5.36 ± 0.39; ΔNSS, 7 days post-CHl [3, 10]: 6.64 ± 0.41^m; ΔNSS, 14 days post-CHl [3, 10]: 6.73 ± 0.52
C#CCNC1CCc2cccc(OC(=O)N(C)C)c21 (stereo not shown) [Compound 27] |  | 30 µmol/kg | 15 min | >60 min | 5.72 µM | > 1000 µM | 
CN(C)C(=O)Oc1ccc2c(c1)C(N)CC2 (stereo not shown) [Compound 1] |  | 5.0 µmol/kg | 30 min | >120 min |  | > 1000 µM | 
C#CCN(C)C1CCc2ccc(OC(=O)N(C)C)cc21 (stereo not shown) [Compound 29] |  | 53.7 µmol/kg | 15 min | >60 min | 8.5 µM | 40 µM | 
C#CCNC1CCc2ccc(OC(=O)N(C)C)cc21 (stereo not shown) [Compound 24, 6-(N,N-Dimethylcarbamyloxy)-N-propargyl aminoindan mesylate] | 152 ± 45 mm* |  |  |  |  | 750 µM | ΔNSS, 24 hr post-CHl [3, 11]: 6.31 ± 0.23^m; ΔNSS, 7 days post-CHl [3, 11]: 8.67 ± 0.41^m; ΔNSS, 14 days post-CHl [3, 11]: 9.67 ± 0.66^m; ΔNSS (difference measured at 24 hours and 48 hours) ([5]; s.c. […] 15 minutes prior to MCA-O and 6.5 mg/kg 2 hours post MCA-O): 1.625

Reference: patent USRE39616E1, “Aminoindan derivatives” (priority 1996, dated 2007)
